Here are results for nine molecules from article PMC9166630, “SAR Probing of KX2-391 Provided Analogues With Juxtaposed Activity Profile Against Major Oncogenic Kinases” (Frontiers in Oncology, 2022).

Series [1] deals with MCF7 (breast) cancer cells. The experiment in a line: SRB cytotoxicity assay, MCF7. Type of series: cell-based, human. The conditions noted are these: maximum tested concentration 50 µM, read-out: IC50 ± SEM, MCF7. On the procedure: (§1) MCF7 (breast) or N87 (stomach) cancer cells were grown in Roswell Park Memorial Institute-1640 (RPMI-1640) medium (Thermo Fisher Scientific, Inc; Waltham, MA, USA), supplemented with 10% heat inactivated fetal bovine serum (FBS), 50 units/mL of penicillin and […] of streptomycin and maintained at 37°C in a humidified atmosphere containing 5% CO2. The cells were maintained as “monolayer culture” by serial subculturing.
(§2) Cytotoxicity was determined using Sulforhodamine B (SRB) method as previously described by Skehan et al. ([66]). Exponentially growing MCF7 and N87 cells were collected using 0.25% Trypsin-EDTA and were then seeded in 96-well plates at a density of 1000-2000 cells/well in 10% FBS and penicillin/streptomycin supplemented RPMI-1640 medium. After 24 h, cells were treated with different concentrations of test compounds and incubated for 72 h at 37°C in a humidified atmosphere containing 5% CO2. Next, the cells were fixed by adding trichloroacetic acid (TCA, 10% final conc. in wells) directly to the wells and incubated for 1 h at 4°C, then cells were washed with distilled water 5 times to remove excess TCA, media, serum proteins, and metabolites, followed by air drying. After that, the fixed cells were stained with 0.4% SRB dissolved in 1% acetic acid for 10 min at room temperature, and excess stain was removed by quickly rinsing with 1% acetic acid. The residual acetic acid was removed completely by air drying the plates for 24 h, and the dye was solubilized with Tris buffer (pH= 7.4, 10 mM) for 5 min on a shaker at 1600 rpm. The optical density (OD) of each well was measured spectrophotometrically at 564 nm with an ELISA microplate reader (ChroMate-4300, FL, USA). The IC50 values (concentration of drug resulting in 50% reduction in cell survival) were calculated according to the equation for Boltzman sigmoidal concentration–response curve using the nonlinear regression fitting models (Graph Pad, Prism Version 5).

The next series has as its system HCT116 cell line. The experiment in a line: MTT anti-proliferative assay, HCT116. The series is classed as cell-based, human. The conditions noted are these: maximum tested concentration 50 µM, read-out: IC50 ± SEM, HCT116. On the procedure:
The test compounds were evaluated for anti-proliferative activity using the MTT viability assay against HCT116 cell line. Cells were seeded in triplicate in 96-well plates at a density of 10x 10^3 cells/mL in a total volume of 200 µL per well. 0.1% of DMSO was used as a vehicle control. Each well was treated with 2 µL test compounds, which had been pre-prepared as stock solutions in […] to furnish the concentration range of study, 0.1 µM to 50 µM, and re-incubated for a further 72 h at 37°C in a humidified atmosphere containing 5% CO2. The culture medium was then removed, and the cells were washed with 100 µL PBS and 100 µL MTT was added, to reach a final concentration of 1 mg/mL MTT. Cells were incubated for 3 h in darkness at 37°C. After that, MTT solution was removed and MTT was solubilized by adding […] DMSO. The cells were maintained at room temperature in darkness for 20 min to ensure thorough color diffusion before reading the absorbance using a microplate reader at 570 nm. All experiments were conducted in triplicates. Results were expressed as percentage viability relative to vehicle control (100%). Dose response curves were plotted and IC50 values (concentration of drug resulting in 50% reduction in cell survival) were obtained using the commercial software package Prism (GraphPad Software, Inc., La Jolla, CA, USA).
For orientation: Formazan colour is commonly taken as a measure of viable cells.

Series [2] has as its system N87 (stomach) cancer cells. Put plainly: SRB cytotoxicity assay, N87. The series is classed as cell-based. The following applies: Homo sapiens, 72 h, maximum tested concentration 50 µM, read-out: IC50 ± SEM, N87. The method, then: as §1, §2
Another series relates to K562 leukemia cell line. Put plainly: CellTiter-Blue cell viability assay, K562. Type of series: cell-based. The following applies: Homo sapiens, CellTiter-Blue, 48 h, maximum tested concentration 20 µM, read-out: IC50 ± SEM, K562. On the procedure:
(§3) HL60, K562, MV4-11 and NB4 were purchased from CLS Cell Line Service GmbH (Eppelheim, Germany). All cell lines were cultured in RPMI-1640 medium supplemented with 10% fetal bovine serum (FBS) (Thermo Fisher Scientific) and 0.1% ciprofloxacin (2.5mg/ml; Cipla Limited; Mumbai, India), and were maintained at 37°C in the presence of 21% O2 and 5% CO2.
(§4) Cell viability was determined using the CellTiter®-Blue Cell Viability Assay kit (Promega, Madison, WI, USA). Approximately 10^4 cells were counted and plated in a 96-well plate in the presence of test compounds ranging from 0.01 to 10 or 20 µM in triplicate and were incubated for 48 h at 37°C in a humidified incubator. After the incubation period was complete, 20 µL of CellTiter®-Blue Cell Viability Assay reagent was added to each well and incubated for additional 2 h for the development of florescence. Florescence was measured at Ex/Em 540/590 on SpectraMax® i3 Multi-Mode microplate reader (Molecular Devices, LLC; San Jose, CA, USA) and plotted against drug concentration to determine the IC50 of the test compounds. The IC50 was obtained by non-linear regression model using GraphPad Prism 6.07 (GraphPad Software, Inc, USA).
(The colour change of resazurin is a common sign of viable cells or microbes.)

The next series relates to HL60 leukemia cell line. The experiment in a line: CellTiter-Blue cell viability assay, HL60. The series is classed as cell-based. The conditions noted are these: Homo sapiens, HL-60; CellTiter-Blue, 48 h; maximum tested concentration 20 µM; read-out: IC50 ± SEM, HL60. On the procedure: as §3, §4
Series [3] relates to MV4-11 leukemia cell line. The experiment in a line: CellTiter-Blue cell viability assay, MV4-11. The following applies: Homo sapiens, CellTiter-Blue, 48 h, maximum tested concentration 20 µM, read-out: IC50 ± SEM, MV4-11. Type of series: cell-based. On the procedure: as §3, §4
The next series concerns NB4 leukemia cell line. The experiment in a line: CellTiter-Blue cell viability assay, NB4. The conditions noted are these: Homo sapiens, 48 h, CellTiter-Blue, 48 h; maximum tested concentration 20 µM; read-out: IC50 ± SEM, NB4. The series is classed as cell-based, human. On the procedure: as §3, §4
Series [4] relates to HT-29 colon cancer cell line. Further details: method as in PMID 29617135. The conditions noted are these: read-out: GI50, HT29 (Colon Cancer); cited from earlier work.

Structures are written as SMILES. Read-outs that look alike come from different tables or passages of the source.

Broadly, the IC50 is the concentration at which inhibition is half-maximal. One may read the melting point as the temperature of the solid-liquid transition. `Nc1ccc(CC(=O)NCc2ccccc2)cc1` [Compound 3a, 2-(4-aminophenyl)-N-benzylacetamide] registered a melting point of 140 to 141 °C. Besides, in [1] (72 h), the IC50 was over 50 µM. The IC50 in series [1] (Homo sapiens, MCF7, 72 h) is over 100 µM. In addition, in the series on HCT116 cell line (72 h), the IC50 was over 50 µM. Also, the IC50 in the series with HCT116 cell line (Homo sapiens, HCT-116, 72 h) was over 100 µM. Besides, in series [2], the IC50 was over 50 µM.

As for `CC(=O)Nc1ccc(CC(=O)NCc2ccccc2)cc1` [Compound 4a, 2-(4-acetamidophenyl)-N-benzylacetamide], the IC50 in series [1] (72 h) is 29.3 ± 4.64 µM; in series [1] (Homo sapiens, MCF7, 72 h), 29.3 µM; in the series on HCT116 cell line (72 h) it was 18.8 ± 3.06 µM; with HCT116 cell line (Homo sapiens, HCT-116, 72 h), 18.8 µM; in series [2], over 50 µM.

Turning to `CCC(=O)Nc1ccc(CC(=O)NCc2ccccc2)cc1` [Compound 4b, N-(4-(2-(benzylamino)-2-oxoethyl)phenyl)propionamide], the melting point turned out to be 210 °C. In addition, the IC50 in the series with K562 leukemia cell line was over 20 µM. The IC50 with HL60 leukemia cell line was over 20 µM. Moreover, in series [1] (Homo sapiens, MCF7, 72 h), the 50% inhibitory concentration (IC50) is 27.7 ± 9.38 µM. Moreover, in [3], the 50% inhibitory concentration (IC50) is over 20 µM. For the same molecule, in the series with HCT116 cell line (Homo sapiens, HCT-116, 72 h), the IC50 was over 50 µM. Moreover, the IC50 in series [2] was 32 ± 6.34 µM.

`O=C(Cc1ccc(NC(=O)c2ccccc2)cc1)NCc1ccccc1` [Compound 4c, N-(4-(2-(benzylamino)-2-oxoethyl)phenyl)benzamide]: the melting point is 212 °C. In the series on K562 leukemia cell line, the half-maximal inhibitory concentration (IC50) was over 20 µM. Also, in the series on HL60 leukemia cell line, the IC50 was 5.27 ± 1.94 µM. The 50% inhibitory concentration (IC50) in series [1] (Homo sapiens, MCF7, 72 h) was found to be 5.11 ± 3.03 µM. The IC50 in series [3] came to 11.9 ± 0.96 µM. Besides, in the series with HCT116 cell line (Homo sapiens, HCT-116, 72 h), the IC50 was 19.7 ± 4.79 µM. Also, the 50% inhibitory concentration (IC50) in [2] is over 50 µM.

In the case of `O=C(Cc1ccc(NC(=O)c2cccc(F)c2)cc1)NCc1ccccc1` [Compound 4d, N-(4-(2-(benzylamino)-2-oxoethyl)phenyl)-3-fluorobenzamide], the melting point was 214 °C. Besides, the IC50 with K562 leukemia cell line was determined as 2.68 ± 0.03 µM. In the series with HL60 leukemia cell line, the half-maximal inhibitory concentration (IC50) came to 2.96 ± 0.25 µM. The concentration for half-maximal inhibition (IC50) in series [1] (Homo sapiens, MCF7, 72 h) amounted to 6.55 ± 1.34 µM. Further, in series [3], the IC50 worked out at 3.2 ± 0.09 µM. Also, the half-maximal inhibitory concentration (IC50) in the series on HCT116 cell line (Homo sapiens, HCT-116, 72 h) was found to be 19 ± 4.18 µM. In [2], the concentration for half-maximal inhibition (IC50) was over 50 µM.

Turning to `O=C(Cc1ccc(NC(=O)c2ccc(Cl)cc2)cc1)NCc1ccccc1` [Compound 4f, N-(4-(2-(benzylamino)-2-oxoethyl)phenyl)-4-chlorobenzamide], the melting point stood at 190 °C. In [1] (Homo sapiens, MCF7, 72 h), the concentration for half-maximal inhibition (IC50) was over 50 µM. Further, the 50% inhibitory concentration (IC50) in [2] turned out to be 48.3 ± 7.44 µM.

Regarding `Cc1ccc(S(=O)(=O)Nc2ccc(CC(=O)NCc3ccccc3)cc2)cc1` [Compound 4g, N-benzyl-2-(4-((4-methylphenyl)sulfonamido)phenyl)acetamide], the melting point stood at 140 °C. For the same molecule, in the series on K562 leukemia cell line, the half-maximal inhibitory concentration (IC50) is over 20 µM. Besides, in the series on HL60 leukemia cell line, the IC50 was over 20 µM. The IC50 in series [1] (Homo sapiens, MCF7, 72 h) is over 50 µM. Besides, the IC50 in [3] is over 20 µM. Further, the IC50 with HCT116 cell line (Homo sapiens, HCT-116, 72 h) is over 50 µM.

On to `O=C(Cc1ccc(NC(=O)c2ccc(Cl)o2)cc1)NCc1ccccc1` [Compound 4p, N-(4-(2-(benzylamino)-2-oxoethyl)phenyl)-5-chlorofuran-2-carboxamide], for which the melting point stood at 217 °C. Moreover, the concentration for half-maximal inhibition (IC50) with NB4 leukemia cell line is over 20 µM. Further, the IC50 in the series on K562 leukemia cell line was over 20 µM. Also, the half-inhibitory concentration (IC50) in the series with HL60 leukemia cell line was over 20 µM. The IC50 in series [3] was over 20 µM.

For orientation: GI50 means the concentration that inhibits growth by half. Take `O=C(Cc1ccc(-c2ccccc2)cc1)NCc1cccc(F)c1` [KX1-136]: the GI50 in series [4] was 0.877 µM.
